Read-outs that look alike come from different tables or passages of the source. Each block holds one compound with its values, some of them ahead of it.
Assays:
[1] = test system: rCYP1A2; set-up: method as in PMID 27633141; conditions: rCYP1A2, melatonin probe substrate; read-out: IC50 against rCYP1A2; cited from earlier work
[2] = target: T1, CYP1A2 (Homo sapiens, UniProt P05177); assay: CYP1A2-mediated phenacetin O-deethylase (POD) activity in pooled human liver microsomes
T1 sequence (P05177 1-516): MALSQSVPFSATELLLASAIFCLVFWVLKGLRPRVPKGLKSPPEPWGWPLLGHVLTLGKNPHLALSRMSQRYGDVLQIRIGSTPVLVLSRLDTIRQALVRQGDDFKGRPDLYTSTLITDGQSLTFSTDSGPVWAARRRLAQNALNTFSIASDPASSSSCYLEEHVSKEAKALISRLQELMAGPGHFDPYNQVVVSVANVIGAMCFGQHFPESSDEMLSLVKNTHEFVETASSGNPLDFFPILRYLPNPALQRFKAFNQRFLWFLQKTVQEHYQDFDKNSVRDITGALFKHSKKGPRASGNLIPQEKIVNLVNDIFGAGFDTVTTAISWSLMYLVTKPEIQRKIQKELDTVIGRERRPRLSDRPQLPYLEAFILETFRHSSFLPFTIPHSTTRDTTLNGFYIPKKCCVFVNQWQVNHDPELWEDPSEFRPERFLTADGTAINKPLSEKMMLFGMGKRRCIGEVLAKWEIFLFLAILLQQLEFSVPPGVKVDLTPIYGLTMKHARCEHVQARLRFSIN
Protocol: The inhibitory potential of five major bioactive compounds from Cassiae semen against CYP1A2-mediated phenacetin O-deethylase (POD) activity was evaluated using previously developed methods with minor modifications. Briefly, the compounds were dissolved in methanol. The incubation mixtures containing pHLMs (0.25 mg/mL), phenacetin (100 µM), and inhibitor (0, 0.5, 2, 5, 20, or 50 µM) were pre-incubated at 37 °C for 5 min. An NADPH-generating system (NGS, 1.3 mM β-NADP^+, 3.3 mM G6P, 1.0 U/mL G6PDH, and 3.3 mM magnesium chloride) was introduced after pre-incubation to initiate the reaction, and further incubated for 15 min. The reaction was quenched by the addition of 50 µL ice-cold acetonitrile containing internal standard (IS; 7nM trimipramine). Aliquots of supernatants were analyzed by liquid chromatography–tandem mass spectrometry (LC-MS/MS, LCMS 8060 system, Shimadzu, Kyoto, Japan). All microsomal incubations were repeated three times.
The inhibitory potential of obtusifolin against the biotransformation of eight P450 probe substrates was examined using previously reported methods with slight changes. The following P450 isoform-specific substrates were used: coumarin (CYP2A6); bupropion (CYP2B6); amodiaquine (CYP2C8); tolbutamide (CYP2C9); omeprazole (CYP2C19); dextromethorphan (CYP2D6); chlorzoxazone (CYP2E1); and midazolam (CYP3A). Mixtures of pooled HLM, P450 substrates, and obtusifolin (0, 0.05, 0.2, 0.5, 2, 5, or 10 µM for CYP1A2; and 0, 0.5, 2, 5, 20, or 50 µM for the other P450 isoforms) were pre-incubated (5 min, 37 °C). NGS was introduced to start the reaction, which was followed by an additional incubation (15 min). Following reaction termination, aliquots of the supernatants were analyzed with LC-MS/MS.
Reverse phase column (Kinetex XB-C18, 100 × 2.10 mm; Phenomenex, Torrance, CA, USA) and triple-quadrupole mass spectrometer (LCMS 8060, Shimadzu, Kyoto, Japan) with an ultra high-performance LC system (Nexera X2, Shimadzu) analyze all the metabolites. Mobile phases were 0.1% formic acid in water (A) and 0.1% formic acid in acetonitrile (B). The elution condition was as follows: 0–0.5 min (B: 8%), 0.5–5 min (B: 8%→60%), 5–6 min (B: 60%), 6–6.1 min (B: 60%→8%), and 6.1–10 min (B: 8%) for the analysis of metabolites of the nine P450 substrates; and 0–1 min (B: 5%), 1–5 min (B: 5%→90%), and 5.1–7 min (B: 90%→5%) for the analysis of resorufin. Electrospray ionization was performed in the positive- and negative-ion modes at 4.0 and −3.5 kV, respectively. For each metabolite, quantitation was carried out in selected reaction monitoring (SRM) mode using the following precursor-to-product ion transition: m/z 152 > 110 for acetaminophen (CYP1A2), m/z 214 > 186 for resorufin (CYP1A1 and CYP1A2), m/z 163 > 107 for 7-hydroxycoumarin (CYP2A6), m/z 256 > 238 for 6-hydroxybupropion (CYP2B6), m/z 328 > 283 for N-desethylamodiaquine (CYP2C8), m/z 287 > 89 for 5-hydroxytolbutamide (CYP2C9), m/z 362 > 214 for 4-hydroxyomeprazole ([…]), m/z 258 > 157 for dextrorphan (CYP2D6), m/z 184 > 120 for 6-hydroxychlorzoxazone (CYP2E1), m/z 342 > 203 for 1′-hydroxymidazolam (CYP3A), and m/z 295 > 100 for trimipramine (IS).
WinNonlin software (Pharsight, Mountain View, CA, USA) was used to calculate IC50 values. Based on Lineweaver–Burk double reciprocal plots, secondary plots of Lineweaver–Burk plots versus obtusifolin concentrations, and visual inspection of Dixon plots, the type of inhibition and apparent kinetic parameters for inhibitory activity (Ki) were estimated.

[3] = test system: CYP1A2; conditions: cited from earlier work
[4] = test system: CYP2C9, CYP2C19, CYP2D6, and CYP3A; conditions: cited from earlier work
[5] = target: T1, CYP1A2; conditions: cited from earlier work
[6] = test system: CYP1A1 and CYP1A2; conditions: cited from earlier work
[7] = test system: CYP1A1; conditions: cited from earlier work
[8] = test system: CYP1A2; set-up: method as in PMID 18814214; conditions: rat liver microsomes; read-out: Ki, CYP1A2-catalyzed POD activity; cited from earlier work
[9] = set-up: method as in PMID 21945452; conditions: humans, cited from earlier work
[10] = read-out: IC50, CYP2C9, CYP2C19, CYP2D6, and CYP3A (other P450 isoforms), HLMs
[11] = read-out: IC50, CYP1A2-mediated POD, HLMs

IC50 [2]: 1.99 ± 0.23 µM
Compound: Cc1cc(O)c2c(c1)C(=O)c1cccc(O)c1C2=O [Chrysophanol, chrysophanol]
IC50 [1]: 0.29 µM

Compound: Cc1cc2cc3c(C)cc(=O)oc3c(C)c2o1 [trioxsalen]
IC50 ([3]; read-out: IC50, CYP1A2): 0.79 µM

IC50 [2]: 2.16 ± 0.48 µM
Compound: COc1cc(O)c2c(c1)C(=O)c1cc(C)cc(O)c1C2=O [Physcion, physcion]
IC50 [1]: 0.88 µM

Compound: COc1cc(O)c2c(O)c3c(=O)cc(C)oc3cc2c1 [Rubrofusarin, rubrofusarin]
IC50 [2]: 6.33 ± 1.38 µM

Compound: COC(=O)c1c2c(c3ccccc3c1O)OC(C)(C)C=C2 [mollugin]
IC50 for CYP1A2-mediated POD in rCYP1A2 relative to HLMs [3]: five-fold higher
Ki [3]: 3.74 µM
Selectivity for CYP1A2 inhibition [3]: 25 fold

Compound: O=C1c2ccccc2C(=O)c2c(O)c(O)cc(O)c21 [purpurin]
IC50 [4, 10]: > 9.6 µM
IC50 [5, 11]: 2.3 µM

Compound: C[C@H](Cc1ccc2c(c1)OCO2)[C@@H](C)Cc1ccc2c(c1)OCO2 [machilin A]
Ki ([3]; read-out: Ki, CYP1A2): 0.71 µM

Compound: Cc1c(O)cc2c(c1O)C(=O)c1ccccc1C2=O [rubiadin]
IC50 [4, 10]: > 9.6 µM
IC50 [5, 11]: 1.3 µM

Compound: C[C@H]1COc2c(N3CCN(C)CC3)c(F)c(N)c3c(=O)c(C(=O)O)cn1c23 [antofloxacin]
Time dependence of CYP1A2 inhibition [3]: time-dependent inhibitors

IC50 [2]: 0.79 ± 0.26 µM
Compound: Cc1cc(O)c2c(c1)C(=O)c1cc(O)cc(O)c1C2=O [Emodin, emodin]
IC50 [6]: < 0.5 µM
IC50 ([4]; microsomes): > 9.6 µM
IC50 ([5]; microsomes): 0.5 µM

Compound: O=c1cc(-c2ccccc2)oc2cc(O)ccc12 [7-hydroxyflavone]
Selectivity for CYP1A1 inhibition over CYP1A2 [7]: six-fold

Compound: Oc1ccc(/C=C/c2cc(O)cc(O)c2)cc1 [resveratrol]
IC50 [7]: 23 µM
Selectivity for CYP1A1 inhibition over CYP1A2 [7]: 51 fold

Compound: COc1c2ccoc2c(OC)c2oc(=O)ccc12 [isopimpinellin]
IC50 [3]: 0.46 µM
Ki [3]: 1.2 µM
Time dependence of CYP1A2 inhibition [3]: time-dependent inhibitors

Compound: COc1cc(/C=C/C(=O)CC(=O)/C=C/c2ccc(O)c(OC)c2)ccc1O [curcumin]
IC50 [7]: 0.74 µM

Compound: O=c1cc(-c2ccccc2)oc2c1ccc1ccccc12 [α-Naphthoflavone, α-naphthoflavone]
IC50 ([6]; read-out: IC50 values, CYP1A1 and CYP1A2 activities): < 0.5 µM
IC50 [7]: 0.06 µM

Compound: O=C(O)c1cc(O)c2c(c1)C(=O)c1cccc(O)c1C2=O [rhein]
Ki [8]: 62 µM
Maximum plasma concentration ([9]; oral dose 50 mg): 9.52 µM
Maximum plasma concentration ([9]; oral dose 100 mg): 18.8 µM

Reference: article PMC9786103, “Potent and Selective Inhibition of CYP1A2 Enzyme by Obtusifolin and Its Chemopreventive Effects” (Pharmaceutics, 2022)
